Drawing on patent US8063034B2, “Oxadiazole derivatives and thiadiazole derivatives having neovascularization inhibitory activity” (Santen Pharmaceutical Co., Ltd., priority 2007, dated 2011), this text covers inhibition for 28 compounds.

Counter-ions that a name gives are not always drawn.

The target in this assay is T1, tyrosine kinase (KDR) (Homo sapiens, UniProt P35968).
T1 construct: purchased CARNABIO SCIENCE Co. Ltd. JAPAN
Briefly: Evaluation test of inhibitory effect of tyrosine kinase (KDR) activity, ELISA method (CARNABIO SCIENCE kit). The class given is biochemical. The following applies: 4 mg/L test compound, 1 μM ATP, substrate 250 nM, 1 hour at room temperature, absorbance 450 nm; read-out: tyrosine kinase inhibition rates (% inhibition). As for the experimental part:
In order to find usefulness of the present compounds, a test of inhibitory effect of tyrosine kinase (KDR) activity was conducted on the present compounds using an evaluation system for kinase (KDR) inhibitory activity by way of the ELISA method which is the method for evaluating neovascularization inhibition effect of drugs, and the neovascularization inhibition effects were evaluated.
Evaluation Test of Inhibitory Effect of Tyrosine Kinase (KDR) Activity
As one of the widely-used methods of evaluating inhibitory effect of tyrosine kinase (KDR) activity by drugs, the ELISA method has been reported. The inhibitory effect of tyrosine kinase (KDR) activity of each of the present compounds was evaluated using the commercially available kit (purchased from CARNABIO SCIENCE Co. Ltd. JAPAN) for evaluating inhibitory effect of tyrosine kinase (KDR) activity.
(Preparation of Test Compound Solution)
Each test compound (2 mg) were dissolved in dimethyl sulfoxide (hereinafter abbreviated as DMSO), and the 2 mg/ml stock solution were prepared. Each obtained solution was diluted with 8 μL of DMSO. Each solution (0.4 mg/ml compound) was diluted 25 times with assay buffer to give the test compound solution. For the vehicle, 4% DMSO-Assay Buffer solution was prepared.
(Preparation of ATP/Substrate Solution)
Thaw commercially available ATP/Substrate (purchased from CARNABIO SCIENCE Co. Ltd. JAPAN), then 250 μL of it was added to 1 mL of assay buffer to give ATP/substrate solution. ATP/substrate solution was kept on ice before use.
(Preparation of Enzyme Solution)
7 μL of commercially available tyrosine kinase (purchased from CARNABIO SCIENCE Co. Ltd. JAPAN) was added to 2.793 mL of assay buffer to give enzyme solution. Enzyme solution was kept on ice before use.
(Preparation of Blocking Buffer)
BSA (Sigma, A-7030) was dissolved with wash buffer (50 mM Tris-HCl (pH7.5), 150 mM NaCl, 0.2% Tween-20) to give x100 BSA solution, and the solution was kept at −80° C. Thaw 400 μL of x100 BSA solution before use, it was added to 40 mL of wash buffer to give blocking buffer.
(Preparation of Detection Mixture)
40 μL of commercially available HRP-conjugated antibody (purchased from CARNABIO SCIENCE Co. Ltd. JAPAN) was added to 12 mL of blocking buffer to give detection mixture.
(Method of Test and Method of Measurement)
1) Add 10 μL of each test compound solution, 10 μL of ATP/substrate solution and 20 μL of enzyme solution to each well of ELISA plate (streptavidin-coated 96-well plate, PerkinElmer, 4009-0010). Incubate for 1 hour at room temperature (4 mg/L test compound solution, 15 mM Tris-HCl (pH7.5), 0.01% Tween 20, 2 mM DTT, concentration of substrate: 250 nM, 1 μM ATP, 5 mM Mg). For the vehicle, the above mentioned 4% DMSO-assay buffer solution was added instead of test compound solution.
2) Aspirate each well and wash with wash buffer, repeating the process three times for four washes.
3) Add 200 μL of blocking buffer to each well and cover the plate and incubate for 30 minutes.
4) Aspirate each well, add 100 μL of detection mixture to each well and incubate the plate for 30 minutes.
5) Aspirate each well and wash with wash buffer 4 times.
6) Add 100 μL of color reagent to each well. Incubate for 5 minutes and then add 0.1 M H2SO4 to each well.
7) Measure the absorbance of each well, using a plate reader set to […].
(Calculation of Kinase Inhibition Rate)
Rate of the reaction positive control well with kinase was considered 0% inhibition, rate of the reaction negative control well with assay buffer instead of kinase was considered 100% inhibition, and so the inhibition rates of test compound well were calculated based on the absorbance of them.
A: Absorbance of the reaction positive control well
B: Absorbance of the reaction negative control well
C: Absorbance of the test compound well
tyrosine kinase inhibition rates (%)=100 [1-(C-A)/(B-A)]
For orientation: An ELISA detects its analyte on a solid surface through an enzyme-linked reagent.

T1 sequence (P35968 790-1356 limits assumed): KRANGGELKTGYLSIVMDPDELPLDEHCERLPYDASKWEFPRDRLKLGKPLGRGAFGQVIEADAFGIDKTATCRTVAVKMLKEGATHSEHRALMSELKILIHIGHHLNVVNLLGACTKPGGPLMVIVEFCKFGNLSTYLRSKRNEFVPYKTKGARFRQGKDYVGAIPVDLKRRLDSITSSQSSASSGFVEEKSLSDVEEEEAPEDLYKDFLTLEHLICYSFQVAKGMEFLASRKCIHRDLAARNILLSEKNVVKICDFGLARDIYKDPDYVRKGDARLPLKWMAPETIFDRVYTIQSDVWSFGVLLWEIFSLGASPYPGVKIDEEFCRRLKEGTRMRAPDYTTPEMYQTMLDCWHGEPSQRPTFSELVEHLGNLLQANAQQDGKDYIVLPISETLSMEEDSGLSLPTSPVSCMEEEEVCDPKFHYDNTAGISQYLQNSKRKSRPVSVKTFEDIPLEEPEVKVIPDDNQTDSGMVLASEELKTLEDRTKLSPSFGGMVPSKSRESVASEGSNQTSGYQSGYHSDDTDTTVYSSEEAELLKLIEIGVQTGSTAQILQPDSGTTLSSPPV

As to `c1ccc(Nc2nnc(-c3ccccc3OCc3ccncc3)o2)cc1` [Compound 1-1, N-Phenyl-5-(2-(pyridin-4-yl)methoxyphenyl)-1,3,4-oxadiazol-2-amine], the inhibition at 4 µg/mL came out at 55%. Next, `FC(F)(F)c1cccc(Nc2nnc(-c3ccccc3OCc3ccncc3)o2)c1` [Compound 1-3, 5-(2-(Pyridin-4-yl)methoxyphenyl)-N-(3-trifluoromethylphenyl)-1,3,4-oxadiazol-2-amine]: 80%; `c1ccc(Nc2nnc(-c3ccccc3OCc3ccnc4ccccc34)o2)cc1` [Compound 1-4, N-Phenyl-5-(2-(quinolin-4-yl)methoxyphenyl)-1,3,4-oxadiazol-2-amine]: 75%. For `CC(=O)Nc1cc(COc2ccccc2-c2nnc(Nc3ccccc3)o2)ccn1` [Compound 1-6, 5-(2-(2-Acetamidopyridin-4-yl)methoxyphenyl)-N-phenyl-1,3,4-oxadiazol-2-amine] the value was 65%; for `CC(C)(C)OC(=O)Nc1cc(CSc2ncccc2-c2nnc(Nc3ccccc3)o2)ccn1` [Compound 1-7, 5-(2-(2-t-Butoxycarbonylaminopyridin-4-yl)methylthiopyridin-3-yl)-N-phenyl-1,3,4-oxadiazol-2-amine], 60%; for `c1ccc(Nc2nnc(-c3cccnc3SCc3ccncc3)o2)cc1` [Compound 1-10, N-Phenyl-5-(2-(pyridin-4-yl)methylthiopyridin-3-yl)-1,3,4-oxadiazol-2-amine], 76%. For `c1ccc(Nc2nnc(-c3cccnc3SCc3ccnc4ccccc34)o2)cc1` [Compound 1-13, N-Phenyl-5-(2-(quinolin-4-yl)methylthiopyridin-3-yl)-1,3,4-oxadiazol-2-amine], the inhibition at 4 µg/mL is 72%. Take `Clc1ccc(Nc2nnc(-c3cccnc3SCc3ccnc4ccccc34)o2)cc1` [Compound 1-14, N-(4-Chlorophenyl)-5-(2-(quinolin-4-yl)methylthiopyridin-3-yl)-1,3,4-oxadiazol-2-amine]: the inhibition at 4 µg/mL turned out to be 90%. For `CC(=O)Nc1cc(CSc2ncccc2-c2nnc(Nc3ccccc3)o2)ccn1` [Compound 1-16, 5-(2-(2-Acetamidopyridin-4-yl)methylthiopyridin-3-yl)-N-phenyl-1,3,4-oxadiazol-2-amine] the value was 95%; for `CC(=O)Nc1cc(CSc2ncccc2-c2nnc(Nc3ccc(Cl)cc3)o2)ccn1` [Compound 1-17, 5-(2-(2-Acetamidopyridin-4-yl)methylthiopyridin-3-yl)-N-(4-chlorophenyl)-1,3,4-oxadiazol-2-amine], 94%. For `CC(=O)Nc1cc(CSc2ncccc2-c2nnc(Nc3cccc(C(F)(F)F)c3)o2)ccn1` [Compound 1-18, 5-(2-(2-Acetamidopyridin-4-yl)methylthiopyridin-3-yl)-N-(3-trifluoromethylphenyl)-1,3,4-oxadiazol-2-amine] the value was 99%; for `CNC(=O)c1cc(CSc2ncccc2-c2nnc(Nc3ccc(Cl)cc3)o2)ccn1` [Compound 1-20, N-(4-Chlorophenyl)-5-(2-(2-methylaminocarbonylpyridin-4-yl)methylthiopyridin-3-yl)-1,3,4-oxadiazol-2-amine], 86%; for `CNC(=O)c1cc(CSc2ncccc2-c2nnc(Nc3cccc(C(F)(F)F)c3)o2)ccn1` [Compound 1-21, 5-(2-(2-Methylaminocarbonylpyridin-4-yl)methylthiopyridin-3-yl)-N-(3-trifluoromethylphenyl)-1,3,4-oxadiazol-2-amine], 93%. On to `c1ccc(Nc2nnc(-c3ccccc3SCc3ccncc3)o2)cc1` [Compound 1-32, N-Phenyl-5-(2-(pyridin-4-yl)methylthiophenyl)-1,3,4-oxadiazol-2-amine], for which the inhibition at 4 µg/mL was 55%.

On to `FC(F)(F)c1cccc(Nc2nnc(-c3ccccc3SCc3ccncc3)o2)c1` [Compound 1-33, 5-(2-(Pyridin-4-yl)methylthiophenyl)-N-(3-trifluoromethylphenyl)-1,3,4-oxadiazol-2-amine], for which the inhibition at 4 µg/mL is 95%. For `CC(C)(C)c1ccc(Nc2nnc(-c3ccccc3SCc3ccncc3)o2)cc1` [Compound 1-34, N-(4-t-Butylphenyl)-5-(2-(pyridin-4-yl)methylthiophenyl)-1,3,4-oxadiazol-2-amine] the value was 86%; for `c1ccc(Nc2nnc(-c3ccccc3SCc3ccncc3)s2)cc1` [Compound 1-35, N-Phenyl-5-(2-(pyridin-4-yl)methylthiophenyl)-1,3,4-thiadiazol-2-amine], 58%. As for `Clc1ccc(Nc2nnc(-c3ccccc3SCc3ccncc3)s2)cc1` [Compound 1-36, N-(4-Chlorophenyl)-5-(2-(pyridin-4-yl)methylthiophenyl)-1,3,4-thiadiazol-2-amine], the inhibition at 4 µg/mL was determined as 68%.

As to `Clc1cccc(Nc2nnc(-c3ccccc3SCc3ccncc3)s2)c1` [Compound 1-37, N-(3-Chlorophenyl)-5-(2-(pyridin-4-yl)methylthiophenyl)-1,3,4-thiadiazol-2-amine], the inhibition at 4 µg/mL was found to be 84%. Next, `FC(F)(F)c1ccc(Nc2nnc(-c3ccccc3SCc3ccncc3)s2)cc1` [Compound 1-38, 5-(2-(Pyridin-4-yl)methylthiophenyl)-N-(4-trifluoromethylphenyl)-1,3,4-thiadiazole-2-amine]: 53%; `CC(C)(C)c1ccc(Nc2nnc(-c3ccccc3SCc3ccncc3)s2)cc1` [Compound 1-39, N-(4-t-Butylphenyl)-5-(2-(pyridin-4-yl)methylthiophenyl)-1,3,4-thiadiazol-2-amine]: 43%; `c1ccc(Nc2nnc(-c3ccccc3SCc3ccnc4ccccc34)o2)cc1` [Compound 1-40, N-Phenyl-5-(2-(quinolin-4-yl)methylthiophenyl)-1,3,4-oxadiazol-2-amine]: 88%. Next, `Clc1ccc(Nc2nnc(-c3ccccc3SCc3ccncc3)o2)cc1` [Compound 1-41, N-(4-Chlorophenyl)-5-(2-(pyridin-4-yl)methylthiophenyl)-1,3,4-oxadiazol-2-amine]: 82%; `CC(=O)Nc1cc(CSc2ccccc2-c2nnc(Nc3ccc(Cl)cc3)o2)ccn1` [Compound 1-45]: 91%; `CC(=O)Nc1cc(CSc2ccccc2-c2nnc(Nc3cccc(C(F)(F)F)c3)o2)ccn1` [Compound 1-46, 5-(2-(2-Acetamidopyridin-4-yl)methylthiophenyl)-N-(3-trifluoromethylphenyl)-1,3,4-oxadiazol-2-amine]: 98%. For `Nc1nccc(CSc2ccccc2-c2nnc(Nc3ccccc3)o2)n1` [Compound 1-47, 5-(2-(2-Aminopyrimidin-4-yl)methylthiophenyl)-N-phenyl-1,3,4-oxadiazol-2-amine] the value was 75%; for `Nc1cc(CSc2ncccc2-c2nnc(Nc3ccc(Cl)cc3)o2)ccn1` [Compound 1-91, 5-(2-(2-Aminopyridin-4-yl)methylthiopyridin-3-yl)-N-(4-chlorophenyl)-1,3,4-oxadiazol-2-amine hydrochloride], 86%. As for `Nc1cc(CSc2ncccc2-c2nnc(Nc3cccc(C(F)(F)F)c3)o2)ccn1` [Compound 1-92, 5-(2-(2-Aminopyridin-4-yl)methylthiopyridin-3-yl)-N-(3-trifluoromethylphenyl)-1,3,4-oxadiazol-2-amine hydrochloride], the inhibition at 4 µg/mL worked out at 98%.

As a reminder, the inhibition is the share of the control response that was lost under treatment.
